Experiments:
[1] = target: T1, human calcitonin receptor (CTR) (Homo sapiens, UniProt P30988); experiment: Calcitonin Receptor (CTR) cAMP Assay; type: cell-based; conditions: COS7-human CTR Clone #2 stable cell line, cAMP dynamic 2 kit, 30 min; read-out: Calcitonin Receptor cAMP Stimulation Activity: EC50
T1 construct: expressed in transfected cells; host or cells: COS-7 (COS7-human CTR Clone #2)
T1 sequence (P30988 25-474): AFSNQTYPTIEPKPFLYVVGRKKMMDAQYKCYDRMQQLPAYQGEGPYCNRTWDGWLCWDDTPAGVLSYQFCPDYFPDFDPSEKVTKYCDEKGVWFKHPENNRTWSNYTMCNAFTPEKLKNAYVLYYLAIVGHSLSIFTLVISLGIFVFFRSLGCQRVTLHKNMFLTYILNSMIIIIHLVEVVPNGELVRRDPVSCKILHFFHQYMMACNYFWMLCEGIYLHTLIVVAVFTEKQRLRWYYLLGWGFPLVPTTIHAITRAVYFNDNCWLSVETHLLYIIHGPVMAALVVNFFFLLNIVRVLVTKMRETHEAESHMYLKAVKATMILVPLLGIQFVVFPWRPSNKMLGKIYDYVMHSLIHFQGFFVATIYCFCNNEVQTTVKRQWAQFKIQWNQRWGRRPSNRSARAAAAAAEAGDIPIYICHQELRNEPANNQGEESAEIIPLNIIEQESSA
Procedure, shortened: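 cAMP accumulation was measured by HTRF cAMP dynamic 2 read at 665/615 nm, 1 h at room temperature, with results scaled between vehicle and positive control. Before detection, COS7-human CTR stable cells were stimulated 30 min at 37 °C with compound (4-fold dilutions) in IBMX-containing HBSS/HEPES/casein buffer.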

[2] = target: T2, COS-7/AMY3 (human calcitonin receptor (CTR) and RAMP3) (Homo sapiens, UniProt O60896+P30988); experiment: Amylin Receptor cAMP Assay II; type: cell-based; conditions: values marked **: Amylin Receptor cAMP Assay II; COS-7/AMY3 cells, cAMP dynamic 2 kit, 30 min; read-out: Amylin Receptor cAMP Stimulation Activity: EC50
T2 construct: expressed in transfected cells; host or cells: COS-7
Procedure, shortened: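 Agonist-induced cAMP was quantified by HTRF ratio at 665/615 nm and expressed as % of the window from vehicle to MAX control. Stimulation lasted 30 min at 37 °C in HBSS/20 mM HEPES/0.5 mM IBMX/0.1% casein, using stable human CTR+RAMP3 (AMY3) COS-7 cells at 2000 per well.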

T2 sequence (O60896 24-148, one chain of several): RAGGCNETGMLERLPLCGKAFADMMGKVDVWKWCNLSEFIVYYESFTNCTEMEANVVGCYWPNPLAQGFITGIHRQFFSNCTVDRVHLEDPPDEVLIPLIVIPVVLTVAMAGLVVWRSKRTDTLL

| Structure (SMILES) | EC50 [1] [nM] | EC50 [2] [nM] |
| --- | --- | --- |
| COc1cccc2c1CC[C@H]2Nc1nccc2cc(-c3c4c(nc(CCc5ccc(F)cc5)c3-c3n[nH]c(=O)o3)[C@]3(C)COCCN3C4=O)sc12 [Compound 179, (R)-2-(4-fluorophenethyl)-4-(7-(((R)-4-methoxy-2,3-dihydro-1H-inden-1-yl)amino)thieno[2,3-c]pyridin-2-yl)-10a-methyl-3-(5-oxo-4,5-dihydro-1,3,4-oxadiazol-2-yl)-7,8,10,10a-tetrahydro-5H-pyrido[2′,3′:3,4]pyrrolo[2,1-c][1,4]oxazin-5-one] | 1.25 | 34.2 |
| COc1cccc2c1CC[C@H]2Nc1nccc2cc(-c3c(-c4n[nH]c(=O)o4)c(CCc4ccc(F)cc4)nc4c3S(=O)(=O)CC4(C)C(C)C)sc12 (stereo partly drawn) [Compound 212, 5-(5-(4-fluorophenethyl)-3-isopropyl-7-(7-(((R)-4-methoxy-2,3-dihydro-1H-inden-1-yl)amino)thieno[2,3-c]pyridin-2-yl)-3-methyl-1,1-dioxido-2,3-dihydrothieno[3,2-b]pyridin-6-yl)-1,3,4-oxadiazol-2(3H)-one] | 526 | 11700 |
| N#Cc1ccc(Cn2ccc3cc(-c4c(-c5cc(=O)[nH]o5)c(CCC5CCOCC5)nc5c4S(=O)(=O)N4CCC[C@@H]54)ccc32)cc1F [Compound 200, 4-[[5-[(2S)-7,7-dioxo-10-(3-oxoisoxazol-5-yl)-11-(2-tetrahydropyran-4-ylethyl)-7thia-6,12-diazatricyclo[6.4.0.02,6]dodeca-1(8),9,11-trien-9-yl]indol-1-yl]methyl]-2-fluoro-benzonitrile] | 8.61 | 1310 |
| C[C@H](Nc1nccc2cc(-c3c4c(nc(CCc5ccc(F)cc5)c3-c3noc(=O)[nH]3)[C@@H]3CCCN3C4=O)sc12)c1ccc(F)c(F)c1 [Compound 141] | 88.8 | 711 |
| COc1cccc2c1CC[C@H]2N1Cc2cc(-c3c4c(nc(CCc5ccc(F)cc5)c3-c3n[nH]c(=O)o3)C35CC(CN3C4=O)C5)ccc2C1=O [Compound 240, (R)-5-(2-(4-fluorophenethyl)-4-(2-(4-methoxy-2,3-dihydro-1H-inden-1-yl)-1-oxoisoindolin-5-yl)-5-oxo-8,9-dihydro-5H,7H-8,9a-methanopyrido[2,3-a]pyrrolizin-3-yl)-1,3,4-oxadiazol-2(3H)-one] | 8.9 | 182 |
| O=C1c2c(nc(CCc3ccc(F)cc3)c(-c3n[nH]c(=O)o3)c2-c2cc3ccnc(N[C@@H]4CCc5nc(C(F)(F)F)ccc54)c3s2)[C@@H]2CCCN12 [Compound 247, 5-((S)-2-(4-fluorophenethyl)-5-oxo-4-(7-(((R)-2-(trifluoromethyl)-6,7-dihydro-5H-cyclopenta[b]pyridin-5-yl)amino)thieno[2,3-c]pyridin-2-yl)-7,8,9,9a-tetrahydro-5H-pyrido[2,3-a]pyrrolizin-3-yl)-1,3,4-oxadiazol-2(3H)-one] | 21.1 | 2410 |
| O=C1c2c(nc(CCc3ccc(F)cc3)c(-c3n[nH]c(=O)o3)c2-c2ccc3c(Cc4ccc(F)cc4F)nccc3c2)[C@@H]2CCCN12 [Compound 219, (S)-5-(4-(1-(2,4-difluorobenzyl)isoquinolin-6-yl)-2-(4-fluorophenethyl)-5-oxo-7,8,9,9a-tetrahydro-5H-pyrido[2,3-a]pyrrolizin-3-yl)-1,3,4-oxadiazol-2(3H)-one] | 27.4 | 437 |
| CC(c1ccc(C#N)c(F)c1)n1ccc2cc(-c3c4c(nc(CCC5CCOCC5)c3-c3cc(=O)[nH]o3)[C@@H]3CCCN3C4=O)ccc21 (stereo partly drawn) [Compound 204, 2-fluoro-4-(1-(5-((S)-5-oxo-3-(3-oxo-2,3-dihydroisoxazol-5-yl)-2-(2-(tetrahydro-2H-pyran-4-yl)ethyl)-7,8,9,9a-tetrahydro-5H-pyrido[2,3-a]pyrrolizin-4-yl)-1H-indol-1-yl)ethyl)benzonitrile] | 5.06 | 266 |
| N#Cc1ccc(Cn2ccc3cc(-c4c(-c5n[nH]c(=O)o5)c(CCc5ccc(F)cc5)nc5c4c(=O)n4n5CCC4)cnc32)cc1F [Compound 161] | 1.82 | 35.8 |
| O=C(N[C@@H]1CCc2cc(F)c(F)cc21)c1ccc(-c2c3c(nc(CCc4ccc(F)cc4)c2-c2noc(=O)[nH]2)[C@@H]2CCCN2C3=O)s1 [Compound 120] | 1.24 | 23.6 |
| O=C1c2c(nc(CCC34CCC(CC3)OC4)c(-c3n[nH]c(=O)o3)c2-c2cnc3c(ccn3Cc3ccc(F)cn3)c2)[C@@H]2CCCN12 [Compound 232, (S)-5-(2-(2-(2-oxabicyclo[2.2.2]octan-4-yl)ethyl)-4-(1-((5-fluoropyridin-2-yl)methyl)-1H-pyrrolo[2,3-b]pyridin-5-yl)-5-oxo-7,8,9,9a-tetrahydro-5H-pyrido[2,3-a]pyrrolizin-3-yl)-1,3,4-oxadiazol-2(3H)-one] | 412 | 12000 |

Compounds with a lower EC50 [1], results first:

| EC50 [1] [nM] | EC50 [2] [nM] | Structure (SMILES) |
| --- | --- | --- |
| 0.807 | 6.35 | COc1c(F)ccc2c1C[C@H](F)[C@H]2Nc1nccc2cc(-c3c4c(nc(CCc5ccc(F)cc5)c3-c3n[nH]c(=O)o3)[C@@H]3CCCN3C4=O)sc12 [Compound 261, 5-((S)-4-(7-(((1S,2S)-2,5-difluoro-4-methoxy-2,3-dihydro-1H-inden-1-yl)amino)thieno[2,3-c]pyridin-2-yl)-2-(4-fluorophenethyl)-5-oxo-7,8,9,9a-tetrahydro-5H-pyrido[2,3-a]pyrrolizin-3-yl)-1,3,4-oxadiazol-2(3H)-one] |
| 0.0172 | 0.363 | COc1c(F)c(F)cc2c1CC[C@H]2Nc1nc(C)cc2cc(-c3c4c(nc(CCc5ccc(F)cc5)c3-c3n[nH]c(=O)o3)[C@@H]3CCCN3C4=O)sc12 [Compound 299, 5-((S)-4-(7-(((R)-5,6-difluoro-4-methoxy-2,3-dihydro-1H-inden-1-yl)amino)-5-methylthieno[2,3-c]pyridin-2-yl)-2-(4-fluorophenethyl)-5-oxo-7,8,9,9a-tetrahydro-5H-pyrido[2,3-a]pyrrolizin-3-yl)-1,3,4-oxadiazol-2(3H)-one] |
| 0.0485 | 2.68 | O=C1c2c(nc(CCc3ccc(F)cc3)c(-c3n[nH]c(=O)o3)c2-c2cc3ccnc(N[C@@H]4CCOc5c(F)cc(F)cc54)c3s2)C23CC(CN12)C3 [Compound 293, (R)-5-(4-(7-((6,8-difluorochroman-4-yl)amino)thieno[2,3-c]pyridin-2-yl)-2-(4-fluorophenethyl)-5-oxo-8,9-dihydro-5H,7H-8,9a-methanopyrido[2,3-a]pyrrolizin-3-yl)-1,3,4-oxadiazol-2(3H)-one] |
| 0.0341 | 0.629 | COc1c(F)ccc2c1CC[C@H]2Nc1nc(C)cc2cc(-c3c4c(nc(CCc5ccc(F)cc5)c3-c3n[nH]c(=O)o3)[C@@H]3COCCN3C4=O)sc12 [Compound 263, (R)-4-(7-(((R)-5-fluoro-4-methoxy-2,3-dihydro-1H-inden-1-yl)amino)-5-methylthieno[2,3-c]pyridin-2-yl)-2-(4-fluorophenethyl)-3-(5-oxo-4,5-dihydro-1,3,4-oxadiazol-2-yl)-7,8,10,10a-tetrahydro-5H-pyrido[2′,3′:3,4]pyrrolo[2,1-c][1,4]oxazin-5-one] |
| 0.0164 | 0.272 | COc1c(F)ccc2c1CC(F)(F)[C@H]2Nc1nc(C)cc2cc(-c3c4c(nc(CCc5ccc(F)cc5)c3-c3n[nH]c(=O)o3)C35CC(CN3C4=O)C5)sc12 [Compound 296, (S)-5-(2-(4-fluorophenethyl)-4-(5-methyl-7-((2,2,5-trifluoro-4-methoxy-2,3-dihydro-1H-inden-1-yl)amino)thieno[2,3-c]pyridin-2-yl)-5-oxo-8,9-dihydro-5H,7H-8,9a-methanopyrido[2,3-a]pyrrolizin-3-yl)-1,3,4-oxadiazol-2(3H)-one] |
| 0.51 | 17.4 | COc1cccc2c1CC[C@H]2Nc1nccc2cc(-c3c4c(nc(CCc5ccc(F)cc5)c3-c3n[nH]c(=O)o3)[C@@H]3CCCN3C4=O)sc12 [Compound 230, 5-((S)-2-(4-fluorophenethyl)-4-(7-(((R)-4-methoxy-2,3-dihydro-1H-inden-1-yl)amino)thieno[2,3-c]pyridin-2-yl)-5-oxo-7,8,9,9a-tetrahydro-5H-pyrido[2,3-a]pyrrolizin-3-yl)-1,3,4-oxadiazol-2(3H)-one] |
| 1.06 | 25.4 | COc1cccc2c1CC[C@H]2Nc1nccc2cc(-c3c4c(nc(CCc5ccc(F)cc5)c3-c3cc(=O)[nH]o3)[C@@H]3CCCN3C4=O)sc12 [Compound 150, 5-((S)-2-(4-fluorophenethyl)-4-(7-(((R)-4-methoxy-2,3-dihydro-1H-inden-1-yl)amino)thieno[2,3-c]pyridin-2-yl)-5-oxo-7,8,9,9a-tetrahydro-5H-pyrido[2,3-a]pyrrolizin-3-yl)isoxazol-3(2H)-one] |

— patent US12486269B2 (Aconcagua Bio, Inc., priority 2024, dated 2025)
